Measured values published in article PMC3402633 (2012).

Molecular target: tubulin (αβ-tubulin heterodimer)
Assay: competition with [3H]colchicine binding
Design: species or system Bos taurus

Ki: 12 to 15 µM
Compound: COC(=O)C1=CC[C@@]23CC[C@@H]([C@@](C)(/C=C/C=C(\C)C(=O)O)OC2=O)[C@@]3(OC(C)=O)CC1 [PAB, pseudolaric acid B]
